{
  "source": "patent US6355799B1",
  "about": "“Substituted benzene compounds, process for their preparation, and herbicidal and defoliant compositions containing them” (ISK Americas Incorporated, priority 1997, dated 2002)",
  "format_in_all_cases": "in vivo",
  "key": {"[1]": {"tested_on": "redroot pigweed (Amaranthus retroflexus, AMARE)", "assay": "Pre-emerge test, greenhouse herbicide activity screening", "settings": "pre-emerge, phytotoxicity rating 0-100 at 14 days after application", "how_it_was_run": "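Plants grown in 10 cm pots of sandy loam mix received acetone-dissolved compounds through a moving flat-fan nozzle. Doses ranged from 15 to 1000 g ai/ha. Pre-emerge pots were seeded one day earlier, post-emerge pots 8–21 days earlier. Fourteen days on, each pot was graded 0–100 for damage.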"}, "[2]": {"tested_on": "barnyardgrass (Echinochloa crus-galli, ECHCG)", "assay": "Pre-emerge test, greenhouse herbicide activity screening", "settings": "pre-emerge, phytotoxicity rating 0-100 at 14 days after application", "how_it_was_run": "(§1)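 Visual ratings on a 0-100 scale (0 no damage, 100 all plants dead) were taken at 14 days after treatment. Rates of 15-1000 g ai/ha in acetone, 187 l/ha, were sprayed onto soil one day after planting (pre-emerge) or onto 2-3 leaf plants with 0.25% v/v surfactant (post-emerge).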"}, "[3]": {"tested_on": "green foxtail (Setaria viridis, SETVI)", "assay": "Pre-emerge test, greenhouse herbicide activity screening", "settings": "pre-emerge, phytotoxicity rating 0-100 at 14 days after application", "how_it_was_run": "as §1"}, "[4]": {"tested_on": "ivyleaf morningglory (Ipomoea hederacea, IPOHE)", "assay": "Pre-emerge test, greenhouse herbicide activity screening", "settings": "pre-emerge, phytotoxicity rating 0-100 at 14 days after application", "how_it_was_run": "as §1"}, "[5]": {"tested_on": "johnsongrass (Sorghum halepense, SORHA)", "assay": "Pre-emerge test, greenhouse herbicide activity screening", "settings": "pre-emerge, phytotoxicity rating 0-100 at 14 days after application", "how_it_was_run": "as §1"}, "[6]": {"tested_on": "lambsquarters (Chenopodium album, CHEAL)", "assay": "Pre-emerge test, greenhouse herbicide activity screening", "settings": "pre-emerge, phytotoxicity rating 0-100 at 14 days after application", "how_it_was_run": "as §1"}, "[7]": {"tested_on": "large crabgrass (Digitaria sanguinalis, DIGSA)", "assay": "Pre-emerge test, greenhouse herbicide activity screening", "settings": "pre-emerge, phytotoxicity rating 0-100 at 14 days after application", "how_it_was_run": "as §1"}, "[8]": {"tested_on": "sicklepod (Cassia obtusifolia, CASOB)", "assay": "Pre-emerge test, greenhouse herbicide activity screening", "settings": "pre-emerge, phytotoxicity rating 0-100 at 14 days after application", "how_it_was_run": "as §1"}, "[9]": {"tested_on": "velvetleaf (Abutilon theophrasti, ABUTH)", "assay": "Pre-emerge test, greenhouse herbicide activity screening", "settings": "pre-emerge, phytotoxicity rating 0-100 at 14 days after application", "how_it_was_run": "as §1"}, "[10]": {"tested_on": "field corn (Zea mays L., var. Dekalb 535, CORN)", "assay": "Pre-emerge test, crop safety", "settings": "crop damage, pre-emerge, phytotoxicity rating 0-100 at 14 days after application", "how_it_was_run": "(§2)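 Compounds in acetone were track-sprayed at 15-1000 g ai/ha (187 l/ha) on sandy loam pots: pre-emerge one day after seeding, post-emerge at 2-3 leaf stage with 0.25% v/v non-ionic surfactant. Phytotoxicity was rated 14 days later on a 0 (no damage) to 100 (complete death) scale.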"}, "[11]": {"tested_on": "upland rice (Oryza sp., var. Tebonnet, RICE)", "assay": "Pre-emerge test, crop safety", "settings": "crop damage, pre-emerge, phytotoxicity rating 0-100 at 14 days after application", "how_it_was_run": "as §2"}, "[12]": {"tested_on": "barnyardgrass (Echinochloa crus-galli, ECHCG)", "assay": "Post-emerge test, greenhouse herbicide activity screening", "settings": "post-emerge, phytotoxicity rating 0-100 at 14 days after application", "how_it_was_run": "(§3)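 Sandy loam pots; pre-emerge: sown 1 d pre-spray, surface-watered after, then bottom-watered. Post-emerge: sown 8–21 d before, 2–3 leaf stage, + 0.25% v/v NIS, bottom-watered. Acetone, 187 l/ha track spray, 15–1000 g ai/ha. 0–100 injury score, day 14.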"}, "[13]": {"tested_on": "green foxtail (Setaria viridis, SETVI)", "assay": "Post-emerge test, greenhouse herbicide activity screening", "settings": "post-emerge, phytotoxicity rating 0-100 at 14 days after application", "how_it_was_run": "as §3"}, "[14]": {"tested_on": "ivyleaf morningglory (Ipomoea hederacea, IPOHE)", "assay": "Post-emerge test, greenhouse herbicide activity screening", "settings": "post-emerge, phytotoxicity rating 0-100 at 14 days after application", "how_it_was_run": "as §3"}, "[15]": {"tested_on": "johnsongrass (Sorghum halepense, SORHA)", "assay": "Post-emerge test, greenhouse herbicide activity screening", "settings": "post-emerge, phytotoxicity rating 0-100 at 14 days after application", "how_it_was_run": "as §3"}, "[16]": {"tested_on": "lambsquarters (Chenopodium album, CHEAL)", "assay": "Post-emerge test, greenhouse herbicide activity screening", "settings": "post-emerge, phytotoxicity rating 0-100 at 14 days after application", "how_it_was_run": "as §3"}, "[17]": {"tested_on": "large crabgrass (Digitaria sanguinalis, DIGSA)", "assay": "Post-emerge test, greenhouse herbicide activity screening", "settings": "post-emerge, phytotoxicity rating 0-100 at 14 days after application", "how_it_was_run": "as §3"}, "[18]": {"tested_on": "redroot pigweed (Amaranthus retroflexus, AMARE)", "assay": "Post-emerge test, greenhouse herbicide activity screening", "settings": "post-emerge, phytotoxicity rating 0-100 at 14 days after application", "how_it_was_run": "as §3"}, "[19]": {"tested_on": "sicklepod (Cassia obtusifolia, CASOB)", "assay": "Post-emerge test, greenhouse herbicide activity screening", "settings": "post-emerge, phytotoxicity rating 0-100 at 14 days after application", "how_it_was_run": "as §3"}, "[20]": {"tested_on": "velvetleaf (Abutilon theophrasti, ABUTH)", "assay": "Post-emerge test, greenhouse herbicide activity screening", "settings": "post-emerge, phytotoxicity rating 0-100 at 14 days after application", "how_it_was_run": "as §3"}, "[21]": {"tested_on": "field corn (Zea mays L., var. Dekalb 535, CORN)", "assay": "Post-emerge test, crop safety", "settings": "post-emerge, crop damage rating 0-100 at 14 days after application", "how_it_was_run": "as §1"}, "[22]": {"tested_on": "upland rice (Oryza sp., var. Tebonnet, RICE)", "assay": "Post-emerge test, crop safety", "settings": "post-emerge, crop damage rating 0-100 at 14 days after application", "how_it_was_run": "as §1"}},
  "data": [
    {"molecule": "Cc1ccc(COC(=O)Nc2c(C)c(Cl)cc(F)c2-n2c(=O)cc(C(F)(F)F)n(C)c2=O)cc1", "note": "[4-60]", "values": [
      {"measurement": "Pre-emerge Herbicidal Activity AMARE", "setting": "[1]; rate 63 g ai/ha", "result": 100},
      {"measurement": "Pre-emerge Herbicidal Activity AMARE", "setting": "[1]; rate 250 g ai/ha", "result": 100},
      {"measurement": "Pre-emerge Herbicidal Activity ECHCG", "setting": "[2]; rate 63 g ai/ha", "result": 40},
      {"measurement": "Pre-emerge Herbicidal Activity ECHCG", "setting": "[2]; rate 250 g ai/ha", "result": 70},
      {"measurement": "Pre-emerge Herbicidal Activity SETVI", "setting": "[3]; rate 63 g ai/ha", "result": 90},
      {"measurement": "Pre-emerge Herbicidal Activity SETVI", "setting": "[3]; rate 250 g ai/ha", "result": 100},
      {"measurement": "Pre-emerge Herbicidal Activity IPOHE", "setting": "[4]; rate 63 g ai/ha", "result": 50},
      {"measurement": "Pre-emerge Herbicidal Activity IPOHE", "setting": "[4]; rate 250 g ai/ha", "result": 100},
      {"measurement": "Pre-emerge Herbicidal Activity SORHA", "setting": "[5]; rate 63 g ai/ha", "result": 30},
      {"measurement": "Pre-emerge Herbicidal Activity SORHA", "setting": "[5]; rate 250 g ai/ha", "result": 50},
      {"measurement": "Pre-emerge Herbicidal Activity CHEAL", "setting": "[6]; rate 63 g ai/ha", "result": 100},
      {"measurement": "Pre-emerge Herbicidal Activity CHEAL", "setting": "[6]; rate 250 g ai/ha", "result": 100},
      {"measurement": "Pre-emerge Herbicidal Activity DIGSA", "setting": "[7]; rate 63 g ai/ha", "result": 100},
      {"measurement": "Pre-emerge Herbicidal Activity DIGSA", "setting": "[7]; rate 250 g ai/ha", "result": 100},
      {"measurement": "Pre-emerge Herbicidal Activity CASOB", "setting": "[8]; rate 63 g ai/ha", "result": 90},
      {"measurement": "Pre-emerge Herbicidal Activity CASOB", "setting": "[8]; rate 250 g ai/ha", "result": 100},
      {"measurement": "Pre-emerge Herbicidal Activity ABUTH", "setting": "[9]; rate 63 g ai/ha", "result": 100},
      {"measurement": "Pre-emerge Herbicidal Activity ABUTH", "setting": "[9]; rate 250 g ai/ha", "result": 100},
      {"measurement": "Pre-emerge Herbicidal Activity CORN", "setting": "[10]; rate 63 g ai/ha", "result": 0},
      {"measurement": "Pre-emerge Herbicidal Activity CORN", "setting": "[10]; rate 250 g ai/ha", "result": 30},
      {"measurement": "Pre-emerge Herbicidal Activity RICE", "setting": "[11]; rate 63 g ai/ha", "result": 60},
      {"measurement": "Pre-emerge Herbicidal Activity RICE", "setting": "[11]; rate 250 g ai/ha", "result": 70},
      {"measurement": "Post-emerge Herbicidal Activity ECHCG", "setting": "[12]; 63 g ai/ha", "result": 60},
      {"measurement": "Post-emerge Herbicidal Activity ECHCG", "setting": "[12]; 250 g ai/ha", "result": 50},
      {"measurement": "Post-emerge Herbicidal Activity SETVI", "setting": "[13]; 63 g ai/ha", "result": 65},
      {"measurement": "Post-emerge Herbicidal Activity SETVI", "setting": "[13]; 250 g ai/ha", "result": 90},
      {"measurement": "Post-emerge Herbicidal Activity IPOHE", "setting": "[14]; 63 g ai/ha", "result": 100},
      {"measurement": "Post-emerge Herbicidal Activity IPOHE", "setting": "[14]; 250 g ai/ha", "result": 100},
      {"measurement": "Post-emerge Herbicidal Activity SORHA", "setting": "[15]; 63 g ai/ha", "result": 50},
      {"measurement": "Post-emerge Herbicidal Activity SORHA", "setting": "[15]; 250 g ai/ha", "result": 50},
      {"measurement": "Post-emerge Herbicidal Activity CHEAL", "setting": "[16]; 63 g ai/ha", "result": 100},
      {"measurement": "Post-emerge Herbicidal Activity CHEAL", "setting": "[16]; 250 g ai/ha", "result": 100},
      {"measurement": "Post-emerge Herbicidal Activity DIGSA", "setting": "[17]; 63 g ai/ha", "result": 40},
      {"measurement": "Post-emerge Herbicidal Activity DIGSA", "setting": "[17]; 250 g ai/ha", "result": 60},
      {"measurement": "Post-emerge Herbicidal Activity AMARE", "setting": "[18]; 63 g ai/ha", "result": 100},
      {"measurement": "Post-emerge Herbicidal Activity AMARE", "setting": "[18]; 250 g ai/ha", "result": 100},
      {"measurement": "Post-emerge Herbicidal Activity CASOB", "setting": "[19]; 63 g ai/ha", "result": 60},
      {"measurement": "Post-emerge Herbicidal Activity CASOB", "setting": "[19]; 250 g ai/ha", "result": 100},
      {"measurement": "Post-emerge Herbicidal Activity ABUTH", "setting": "[20]; 63 g ai/ha", "result": 100},
      {"measurement": "Post-emerge Herbicidal Activity ABUTH", "setting": "[20]; 250 g ai/ha", "result": 100},
      {"measurement": "Post-emerge Herbicidal Activity CORN", "setting": "[21]; 63 g ai/ha", "result": 25},
      {"measurement": "Post-emerge Herbicidal Activity CORN", "setting": "[21]; 250 g ai/ha", "result": 55},
      {"measurement": "Post-emerge Herbicidal Activity RICE", "setting": "[22]; 63 g ai/ha", "result": 50},
      {"measurement": "Post-emerge Herbicidal Activity RICE", "setting": "[22]; 250 g ai/ha", "result": 70}
    ]}
  ]
}
